The source of these data is patent US7247617B2, “Sixteen-member macrolide antiinfective agents” (Kosan Biosciences Incorporated, priority 2004, dated 2007).

One assay deals with S. pneumoniae. As to the kind of experiment: Biological activity against bacterial strains: S. pneumoniae. The settings on record: for Biological Activity, S. pneumoniae ATCC6301: strain ATCC6301; for Biological Activity, S. pneumoniae ATCC49619: strain ATCC49619; for Biological Activity, S. pneumoniae ATCC700671: strain ATCC700671; for Biological Activity, S. pneumoniae ATCC700676*: strain ATCC700676, macrolide resistant strain; for Biological Activity, S. pneumoniae ATCC700677*: strain ATCC700677, macrolide resistant strain; for Biological Activity, S. pneumoniae ATCC700905*: strain ATCC700905, macrolide resistant strain; for Biological Activity, S. pneumoniae ATCC700906*: strain ATCC700906, macrolide resistant strain. Further details: Biological Activity, S. pneumoniae ATCC6301 / Biological Activity, S. pneumoniae ATCC700671 / Biological Activity, S. pneumoniae ATCC700676* / Biological Activity, S. pneumoniae ATCC700677* / Biological Activity, S. pneumoniae ATCC700905* / Biological Activity, S. pneumoniae ATCC700906* / Biological Activity, S. pneumoniae ATCC49619: unit not given here. The assay is classed as cell-based, Streptococcus pneumoniae.

In a further assay the test system is S. aureus. As to the kind of experiment: Biological activity against bacterial strains: S. aureus. Format: cell-based, Staphylococcus aureus. Further details: unit not given here. The note with it: for Biological Activity, S. aureus ATCC6538p: strain ATCC6538p; for Biological Activity, S. aureus ATCC14154*: strain ATCC14154, macrolide resistant strain; for Biological Activity, S. aureus ATCC29213: strain ATCC29213; for Biological Activity, S. aureus ATCC33591*: strain ATCC33591, macrolide resistant strain; for Biological Activity, S. aureus ATCCBAA-39*: strain ATCCBAA-39, macrolide resistant strain; for Biological Activity, S. aureus ATCCBAA-44*: strain ATCCBAA-44, macrolide resistant strain.

Another assay relates to S. epidermidis. As to the kind of experiment: Biological activity against bacterial strains: S. epidermidis. The assay is classed as cell-based, Staphylococcus epidermidis. The settings on record: strain ATCC12228.
In the next assay the test system is E. faecalis. As to the kind of experiment: Biological activity against bacterial strains: E. faecalis. Format: cell-based, Enterococcus faecalis. The note with it: strain ATCC51575.

Turning to `CCC1OC(=O)CC(O)C(C)C(OC2OC(C)C(O)C(N(C)C)C2O)C(CCN2CC(C)CC(C)C2)CC(C)C(=NOCC(=O)N2CCN(c3ccccc3)CC2)C=CC(C)=CC1CO` (stereo not drawn) [Compound X], in the assay with S. pneumoniae, the “Biological Activity, S. pneumoniae ATCC6301” value was found to be 0.049; the “Biological Activity, S. pneumoniae ATCC49619” value is 0.049; the “Biological Activity, S. pneumoniae ATCC700671” value worked out at 0.098; the “Biological Activity, S. pneumoniae ATCC700676*” value was determined as 1.56. In addition, in the assay on S. pneumoniae, the “Biological Activity, S. pneumoniae ATCC700677*” value is on record as more than 12.5; the “Biological Activity, S. pneumoniae ATCC700905*” value was found to be 0.78; the “Biological Activity, S. pneumoniae ATCC700906*” value is reported as more than 12.5. In addition, in the assay on S. aureus, the “Biological Activity, S. aureus ATCC6538p” value is 0.39; the “Biological Activity, S. aureus ATCC14154*” value is 3.12; the “Biological Activity, S. aureus ATCC29213” value was 1.56; the “Biological Activity, S. aureus ATCC33591*” value is listed as more than 12.5. In the assay on S. aureus, the “Biological Activity, S. aureus ATCCBAA-39*” value was more than 12.5 and the “Biological Activity, S. aureus ATCCBAA-44*” value is on record as more than 12.5. In addition, the “Biological Activity, S. epidermidis ATCC12228” value in the assay with S. epidermidis amounted to 0.78. Also, the “Biological Activity, E. faecalis ATCC51575” value with E. faecalis is more than 12.5.
Take `CC[C@H]1OC(=O)C[C@@H](O)[C@H](C)[C@@H](O[C@@H]2O[C@H](C)[C@@H](O)[C@H](N(C)C)[C@H]2O)[C@@H](CCN2C[C@H](C)C[C@H](C)C2)C[C@@H](C)C(=O)/C=C/C(C)=C/[C@@H]1CO[C@@H]1O[C@H](C)[C@@H](O)[C@@H](OC)[C@H]1OC` [Tilm, tilmicosin, reference compound]: in the assay with S. pneumoniae, the “Biological Activity, S. pneumoniae ATCC6301” value was determined as 0.39; the “Biological Activity, S. pneumoniae ATCC49619” value is on record as 1.56; the “Biological Activity, S. pneumoniae ATCC700671” value turned out to be 0.78; the “Biological Activity, S. pneumoniae ATCC700676*” value was determined as 0.78. Further, in the assay on S. pneumoniae, the “Biological Activity, S. pneumoniae ATCC700677*” value worked out at 6.25; the “Biological Activity, S. pneumoniae ATCC700905*” value stood at 1.56; the “Biological Activity, S. pneumoniae ATCC700906*” value was more than 12.5. Moreover, in the assay on S. aureus, the “Biological Activity, S. aureus ATCC6538p” value is reported as 0.098; the “Biological Activity, S. aureus ATCC14154*” value is on record as 0.39; the “Biological Activity, S. aureus ATCC29213” value amounted to 0.20; the “Biological Activity, S. aureus ATCC33591*” value is listed as more than 12.5. Besides, in the assay on S. aureus, the “Biological Activity, S. aureus ATCCBAA-39*” value is reported as more than 12.5 and the “Biological Activity, S. aureus ATCCBAA-44*” value is more than 12.5. For the same compound, in the assay with S. epidermidis, the “Biological Activity, S. epidermidis ATCC12228” value was determined as 0.098. In the assay with E. faecalis, the “Biological Activity, E. faecalis ATCC51575” value is more than 12.5.
In the case of `CC[C@H]1OC(=O)C[C@@H](O)[C@H](C)[C@@H](O[C@@H]2O[C@H](C)[C@@H](O[C@H]3C[C@@](C)(O)[C@@H](O)[C@H](C)O3)[C@H](N(C)C)[C@H]2O)[C@@H](CC=O)C[C@@H](C)C(=O)/C=C/C(C)=C/[C@@H]1CO[C@@H]1O[C@H](C)[C@@H](O)[C@@H](OC)[C@H]1OC` [Tyl, tylosin, reference compound], in the assay with S. pneumoniae, the “Biological Activity, S. pneumoniae ATCC6301” value turned out to be 0.098; the “Biological Activity, S. pneumoniae ATCC49619” value amounted to 0.098; the “Biological Activity, S. pneumoniae ATCC700671” value came out at 0.20; the “Biological Activity, S. pneumoniae ATCC700676*” value is 0.20. Further, in the assay on S. pneumoniae, the “Biological Activity, S. pneumoniae ATCC700677*” value is given as more than 12.5; the “Biological Activity, S. pneumoniae ATCC700905*” value was determined as 0.20; the “Biological Activity, S. pneumoniae ATCC700906*” value is given as more than 12.5. Further, in the assay with S. aureus, the “Biological Activity, S. aureus ATCC6538p” value is 0.20; the “Biological Activity, S. aureus ATCC14154*” value is 1.56; the “Biological Activity, S. aureus ATCC29213” value is listed as 1.56; the “Biological Activity, S. aureus ATCC33591*” value was more than 12.5. Moreover, in the assay with S. aureus, the “Biological Activity, S. aureus ATCCBAA-39*” value is reported as more than 12.5 and the “Biological Activity, S. aureus ATCCBAA-44*” value is given as more than 12.5. The “Biological Activity, S. epidermidis ATCC12228” value with S. epidermidis is on record as 0.39. The “Biological Activity, E. faecalis ATCC51575” value in the assay with E. faecalis is on record as more than 12.5.
